Numbers after ± are expanded uncertainties.
Conditions: Liquid, Closed cell (Static) method

FC1(F)C(F)(F)C(F)(F)C1(F)F [octafluorocyclobutane]
Conditions	vapor or sublimation pressure [kPa]
247.9 K	39 ± 3
248.25 K	41 ± 3
248.3 K	40 ± 3
253.38 K	51 ± 3
263 K	81 ± 3
265.93 K	92 ± 3
267.92 K	99 ± 3
269.89 K	110 ± 3
272.9 K	122 ± 3
277.87 K	148 ± 3
282.9 K	180 ± 3
287.89 K	216 ± 3
292.89 K	257 ± 4
303.37 K	362 ± 4
313.09 K	486 ± 4
322.53 K	635 ± 5
335.34 K	889 ± 5
342.37 K	1055 ± 6
352.36 K	1329 ± 7

FC(F)=C(F)F [tetrafluoroethene]
Conditions	vapor or sublimation pressure [kPa]
248.2 K	864 ± 7
248.3 K	866 ± 8
253.34 K	1017 ± 8
263 K	1357 ± 10
263.18 K	1367 ± 9
273.14 K	1804 ± 11
282.9 K	2330 ± 12
283.19 K	2340 ± 12
